Key:
human myoblast cells [1] = assay: Human myoblast differentiation (% eMyHC area), IGF2 and/or sodium butyrate; type: cell-based
Description: Human myoblast cells were treated with either PBS (vehicle), IGF2 (15 ng/mL), sodium butyrate, or IGF2 and sodium butyrate. Fresh media was added every 24 hours. After 96 hours, cells were pulsed for 2-5 hours with EdU (30 uM), ethanol fixed, stained with Hoescht 3342, immunostained for proliferation—as measured by the percent of cells staining positive for EdU (% EdU)-, and immunostained for differentiation—as measured by the increase in cellular area staining positive for embryonic myosin heavy chain (% eMyHC) relative to the negative controls, which received media and vehicle only. The total area of eMyHc positive cells was analyzed, and treated cells were compared to cells treated with the vehicle alone. […] Significance was determined by a p-value less than 0.05 by the one-way ANOVA Tukey Honest Significant Difference test.
FIG. 3C Bar graph quantitation of % Area eMyHC+ human myoblast in response to indicated treatment compared to IGF2 (15 ng/mL). Myoblast were cultured 96 h in the presence of IGF2 at indicated dose. Fresh media and IGF2 was added every 24 h.
Human myoblast cells were treated with either PBS (vehicle), IGF2 (15 ng/mL), sodium butyrate, or IGF2 and sodium butyrate. Fresh media was added every 24 hours. After 48 hours, cells were pulsed for 2-5 hours with EdU (30 uM), ethanol fixed, stained with Hoescht 3342, immunostained for proliferation […] as measured by the percent of cells staining positive for EdU (% EdU)-, and immunostained for differentiation—as measured by the increase in cellular area staining positive for embryonic myosin heavy chain (% eMyHC) relative to the negative controls, which received media and vehicle only.
Significance was determined by a p-value less than 0.05 by the one-way ANOVA Tukey Honest Significant Difference test.

Mouse myoblasts = assay: Mouse myoblast fusion index with sodium butyrate; type: cell-based; conditions: 48 h
Description: Mouse myoblasts were treated with PBS or sodium butyrate at concentrations 0.1 nM, 1 nM, and 10 nM. Myoblasts were cultured for 48 hours, with fresh media added every 24 hours. Cells were pulsed for 2-5 hours with EdU (30 uM), ethanol fixed, stained with Hoescht 3342, immunostained for proliferation—as measured by the percent of cells staining positive for EdU (% EdU)-, and immunostained for differentiation—as measured by the increase in cellular area staining positive for embryonic myosin heavy chain (% eMyHC) relative to the negative controls, which received media and vehicle only. […] Significance was determined by a p-value less than 0.05 by the one-way ANOVA Tukey Honest Significant Difference test.
FIG. 3A: Bar graph of fusion index in response to sodium butyrate (NaBut) compared to vehicle. Myoblast were cultured 48 h in the presence of NaBut at indicated dose. Fresh media and NaBut were added every 24 h. Mean∓S.D. Table with quantitation of fusion index and p-values also shown. (*p<0.05 by Student's Two-tailed T-test, n=3−5)

DM1 human myoblast = assay: Gene expression fold change in DM1 human myoblast; type: cell-based; conditions: 48 h; BMP7 50 ng/mL, Butyrate 100 nM, IGF2 200 ng/mL
Description: Myoblasts were cultured 48 h in the presence of factors (BMP7 50 ng/mL, Butyrate 100 nM, IGF2 200 ng/mL).
Myoblasts were cultured 96 h in the presence of factors (IGF2 200 ng/mL). […] Myoblasts were cultured 48 h in the presence of factors (IGF2 200 ng/mL).
RNA was isolated from each well (RNeasy Mini Kit, Qiagen) and cDNA was obtained by reverse-transcription (High Capacity Reverse Transcription Kit, Thermo Fisher Scientific). Real-time quantitative PCR was performed using QuantStudio3 (Thermo Fisher).
IGF2 was tested individually for its ability to promote proliferation and/or fusion of human muscle progenitor cells from an individual with myotonic dystrophy type 1 (hMD)—a muscular dystrophy caused by mutations in the DMPK1 gene. The effect of IGF2 on myogenic activity was assayed in biological triplicate across a range of concentrations centered around expected physiological levels by adding each factor to hMD myoblasts for 72 hours with daily media changes (DMEM+2% horse serum) and a second pulse of factors at the first media change. After 72 or 96 hours, cells were pulsed for 2-5 hours with EdU (30 uM), ethanol fixed, stained with Hoescht 3342, immunostained for proliferation—as measured by the percent of cells staining positive for EdU (% EdU)-, and immunostained for differentiation—as measured by the increase in cellular area staining positive for embryonic myosin heavy chain (% eMyHC) relative to the negative controls, which received media and vehicle only. Wells were imaged on a Keyence BZ-100 at 4×, the images quantified in Cell Profiler, and the statistics were computed in R. Additionally, RNA was extracted from myoblast and select transcript abundances quantified by qPCR.

human myoblast cells [2] = assay: Differentiation of human myoblast cells, MyHC immunostaining; type: cell-based; conditions: for % MyHC: 96 hours with daily media change; for percentage area of MyHC compared with vehicle control: 96 hours, One-Way ANOVA Tukey
Description: (§1) FIG. 1A: The suspension CHO cells were transiently transfected with the IGF2-hFcm encoding plasmid. IGF2-hFcm was affinity-purified by Protein A membrane column. The purified IGF2-hFcm was added into the culture of human myoblast cells for 96 hours. Myosin heavy chain (MyHC) was immunostained and imaged by a fluorescence microscope.
as §1, with “1B:” for “1A:”, “IGF2-LhFc4” for “IGF2-hFcm”, “hours with daily media change.” for “hours.”
as §1, with “2A:” for “1A:”, “HSA-L-IGF2R61A” for “IGF2-hFcm”, “hours with daily media change.” for “hours.”
Suspension CHO cells were transiently transfected with the IGF2-hFcm encoding plasmid. After four days, the culture supernatants were collected and IGF2-hFcm was affinity-purified by Protein A membrane column. The purified IGF2-hFcm was added into the culture of human myoblast cells. Myosin heavy chain (MyHC) was immunostained and imaged by a fluorescent microscope. After quantification of the stained MyHC, the percentage area of MyHC was calculated as the percent of pixels within the field that are illuminated above background in the stained channel. […] Significance was determined by a p-value less than 0.05 by the one-way ANOVA Tukey Honest Significant Difference test.

[3] = Backbone cleavage on expression from CHO cells (reducing SDS-PAGE, Western blot)
Description: The amino acid backbone of IGF2 is cleaved when expressed from Chinese Hamster Ovary (CHO) cells (FIG. 13A) as visualized on a reducing SDS-PAGE and Western blot (FIG. 13B). The CHO cells were grown in a 37° C. incubator with a humidified atmosphere of 8% CO2 on an orbital shaker platform with a shaking speed 125 rpm to reach 4E6 cells/mL, followed by transferring the calculated volume of cells to fresh, pre-warmed ExpiCHO™ Expression Medium in a shake flask. Incubated flasks in a 37° C. incubator with a humidified atmosphere of 8% CO2 shook on an orbital shaker platform until cultures reached a density of 4×106-6×10^6 viable cells/mL. After mixing each plasmid with 100 ul SFM in a microtube; ExpiFectamine (8 ul×10.5=84 ul) with OptiPro medium (92 ul×10.5=966 ul) in a microtube; adding 100 ul into the plasmid tube and mix by pipetting; After 5 min, add 200 ul into each well and swirl to mix. mix enhancer (15×10.2=153 ul) with feed (600×10.2=6.12 ml), add 615 ul into each well. Culture supernatant collected at intervals was spun down at low speed and high speed, then frozen at −80 deg. Aliquots were analyzed for protein concentration by nanodrop, and then an equivalent amount loaded onto 4-12% SDS-PAGE gels for molecular weight distribution analysis. […]

[4] = system: human DM1 muscle precursors from person; assay: In vitro myogenesis assay, human DM1 muscle precursors; type: cell-based; conditions: equimolar concentrations across a range of concentrations
Description: (§2) Human muscle progenitor cells (early passage myoblasts) were cultured and expanded in growth medium: Ham's F-10 (Gibco), 20% Bovine Growth Serum (Hyclone), 5 ng/mL FGF2 and 1% penicillin-streptomycin on Matrigel coated plates (1:300 matrigel: PBS), at 37° C. and 5% CO2. For experimental conditions, cells were plated at 40,000 cells/well on Matrigel coated 8-well chamber slides in 250-500 μL medium per well (1:100 matrigel: PBS) in human fusion medium: DMEM (Gibco)+2% horse serum (Hyclone). One hour after plating, human myoblasts were treated with 50% respective media: […] were cultured for 24 hours in the above conditions, at 37° C. in 10% CO2 incubator. BrdU (300 μM) in DMSO was added for 2 hours prior to fixation with cold 70% ethanol and stored at 4° C. until staining.
(§3) Following permeabilization in PBS+0.25% Triton X-100, antigen retrieval was performed. Primary staining was performed with primary antibodies including: a species-specific monoclonal antibody for mouse anti-embryonic Myosin Heavy Chain (eMyHC, hybridoma clone 1.652, Developmental Studies Hybridoma Bank) and Rat-anti-BrdU (Abcam Inc. ab6326). […]

[5] = system: healthy human muscle precursors from person; assay: In vitro myogenesis assay, healthy human muscle precursors; type: cell-based
Description: as §2, §3

rhIGFBP3 = rhIGFBP3 (Homo sapiens, UniProt P17936); assay: Interaction with rhIGFBP3 by size exclusion chromatography (HPLC); type: binding; conditions: 1:1 stoichiometric mixture
Description: In physiological conditions IGF2 will bind IGF binding proteins (IGFBPs). The purpose of this study was to determine if mutant sequences of IGF2 interact with IGFBPs. Retention time across a size exclusions chromatography column is proportional to the size of the molecule. Thus molecular interactions can be ascertained by a corresponding change in retention time on a size exclusions chromatography column.

[6] = Pharmacokinetics after intravenous injection in mice; type: in vivo
Description: Murine pharmacokinetics (PK) represents the absorption, distribution, metabolism, and elimination of drugs from the body. The pharmacokinetic profile of the therapeutic polypeptides were determined in mice (10-12 weeks old). Mice were fed ad libitum and housed under controlled conditions of lighting (12-hour light/12-hour dark) and temperature (22-24° C.). Mice were allowed to acclimate for 3 days prior to the initiation of the experiment. Intravenous (IV) injection in 10-12 weeks old mice. Engineered mitogenic polypeptides concentrations in the samples were measured by ELISA. Various pharmacokinetics will be calculated as well as the absorption/elimination dynamics following different routes of administration.

rhIGFBP3, sequence (P17936 28-291): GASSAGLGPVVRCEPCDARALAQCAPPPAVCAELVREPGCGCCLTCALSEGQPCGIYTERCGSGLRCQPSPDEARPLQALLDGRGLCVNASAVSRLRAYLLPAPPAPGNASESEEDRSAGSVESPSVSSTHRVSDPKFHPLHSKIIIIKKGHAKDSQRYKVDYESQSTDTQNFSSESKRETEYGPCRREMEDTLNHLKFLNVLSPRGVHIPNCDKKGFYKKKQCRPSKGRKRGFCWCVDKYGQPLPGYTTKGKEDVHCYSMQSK

Compound: CCCC(=O)[O-].[Na+] [NaBut, sodium butyrate]
- % eMyHC (human myoblast cells [1]; NaBut 1 nM, 96 h (FIG. 3B)): 2.321%
- % eMyHC (human myoblast cells [1]; NaBut 1 nM, after 48 hours (FIG. 4A)): 2.321%
- % eMyHC (human myoblast cells [1]; NaBut 10 nM, 96 h (FIG. 3B)): 6.199%
- % eMyHC (human myoblast cells [1]; NaBut 10 nM, after 48 hours (FIG. 4A)): 6.199%
- % eMyHC (human myoblast cells [1]; NaBut 100 nM, 96 h (FIG. 3B)): 8.341%
- % eMyHC (human myoblast cells [1]; NaBut 100 nM, after 48 hours (FIG. 4A)): 8.341%
- Fusion Index (nuclei/myotube) (Mouse myoblasts; NaBut 0.1 nM): 8.44 nuclei/myotube
- Fusion Index (nuclei/myotube) (Mouse myoblasts; NaBut 1 nM): 31.60 nuclei/myotube
- Fusion Index (nuclei/myotube) (Mouse myoblasts; NaBut 1 nM, listed as sodium butyrate): increased rates of fusion
- Fusion Index (nuclei/myotube) (Mouse myoblasts; NaBut 10 nM): 14.00 nuclei/myotube
- MYF5 myogenic gene expression fold change compared to FM (vehicle) (DM1 human myoblast): 1.128
- MYODI myogenic gene expression fold change compared to FM (vehicle) (DM1 human myoblast): 1.095
- MYOG myogenic gene expression fold change compared to FM (vehicle) (DM1 human myoblast): 1.020

Compound: hFc4L-IGF2: hFc4-linker3-human IGF2, SEQ ID NO 40
- % MyHC (human myoblast cells [2]; FIG. 1B, Example 3): 5.820%

Compound: IGF2-hFc4: Human IGF2-hFc4, SEQ ID NO 39
- % MyHC (human myoblast cells [2]; FIG. 1B, Example 3): 6.901%

Compound: HSA-IGF2: His tagged HSA fusion IGF2 with a long linker, SEQ ID NO 33
- % MyHC (human myoblast cells [2]; FIG. 2A, Example 4): 7.079%
- cleavage of the amino acid backbone when expressed from CHO cells [3]: cleaved

Compound: IGF2-LhFc4: Human IGF2-linker3-hFc4 (human IgG4 Fc with S228P), SEQ ID NO 38
- percentage area of MyHC compared with vehicle control (human myoblast cells [2]): significantly higher
- % MyHC (human myoblast cells [2]; FIG. 1B, Example 3): 6.237%

Compound: HSA-IGF2R61A: His tagged HSA fusion IGF2 R61A mutant with a long linker, SEQ ID NO: 34
- myogenic activity relative to IGF2 [4]: equal activity
- myogenic activity relative to IGF2 ([5]; equimolar concentrations across a range of concentrations): equal activity
- myogenic activity relative to HSA-IGF2 ([5]; equimolar concentrations, before or after size exclusion purification via HPLC): equal or increased activity
- percentage area of MyHC compared with vehicle control (human myoblast cells [2]): significantly higher
- % MyHC (human myoblast cells [2]; FIG. 2A, Example 4): 6.914%
- interaction with rhIGFBP3 (mass shift in size exclusion chromatography) (rhIGFBP3): preserved affinity
- serum half-life compared to the natural sequence of IGF2 ([6]; mice): significantly improved
- Half-life ([6]; mice 10-12 weeks old, dose 10 mg/kg (HSA-IGF2R61A), 600 ug/kg (IGF2), Non-Compartment Analysis): 20.81 h
